Test results: patent publication US8252973B2, “Metabolic engineering of lipid metabolism by improving fatty acid binding and transport” (The Salk Institute for Biological Studies, priority 2006, dated 2012)

Key:
Assay type in all cases: binding
At287 (At1g53520) = target: T1, At287 (At1g53520) (Arabidopsis thaliana, UniProt Q9C8L2); experiment: LC-MS analysis of fatty acids bound to purified At287 protein; conditions: protein over-expressed in and purified from E. coli, ethanol extract, negative-ion ESI
T1 construct: At279 and At287 proteins were purified to homogeneity as described above; His tag (pHIS8 vector) (N, cleaved yes); made in house; host or cells: E. coli BL21 (DE3)
T1 sequence (Q9C8L2 73-287): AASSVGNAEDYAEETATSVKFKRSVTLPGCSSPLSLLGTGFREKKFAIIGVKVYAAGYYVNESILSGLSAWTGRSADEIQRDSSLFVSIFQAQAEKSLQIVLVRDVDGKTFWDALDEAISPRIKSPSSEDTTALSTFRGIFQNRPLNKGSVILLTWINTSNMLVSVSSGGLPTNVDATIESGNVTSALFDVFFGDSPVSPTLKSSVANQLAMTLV
Experimental: (§1) Cloning, expression and purification of At3g63170 (At279) and At1g53520 (At287): Arabidopsis thaliana At3g63170 (At279) and At1g53520 (At287) genes were subcloned into the pHIS8 Escherichia coli expression vector derived from pET28a (+). For crystallization purpose, constructs of At279 and At287 lacking the transit peptide sequence found at the N-terminal region of the protein (˜50 amino acids) were also created. Transformed E. coli. BL21 (DE3) cells were incubated with shaking at 37° C. in Terrific broth containing 50 μg/ml kanamycin until A([…])=1.0. Protein expression was induced with 0.5 mM isopropyl 1-thio-β-galactopyranoside, and the cultures were incubated with shaking at 22° C. for an additional 6 h. Cells were harvested by centrifugation at 9,000×g and cell pellets re-suspended in lysis buffer (500 mM NaCl, 50 mM Tris-HCl (pH 8.0), 20 mM imidazole, 10% (v/v) glycerol 1% (v/v) Tween 20, 10 mM […]) supplemented with 1 mg/ml lysozyme. Following sonication and centrifugation of the lysed cell debris at 100,000×g, the supernatant was passed over a Ni2+-NTA column (Qiagen, Valencia, Calif.) equilibrated in lysis buffer, washed with 10 bed volumes of wash buffer (500 mM NaCl, 50 mM Tris-HCl (pH 8.0), 20 mM imidazole, 10 mM β-mercaptoethanol), and the His-tagged protein eluted with 10 bed volumes of elution buffer (500 mM NaCl, 50 mM Tris-HCl (pH 8.0), 250 mM imidazole, 10 mM β-mercaptoethanol). The N-terminal His tag was cleaved by thrombin digestion during a 24-h dialysis against digestion buffer (500 mM NaCl, 50 mM Tris (pH 8.0), 10 mM β-mercaptoethanol) at 4° C. Cleaved protein was isolated by running the dialyzed sample over another Ni2+-NTA column equilibrated in digestion buffer to remove the His tag and uncleaved protein, followed by a benzamidine-Sepharose column to remove thrombin. A Superdex S75 gel filtration column (Amersham Biosciences) equilibrated in gel filtration buffer (500 mM NaCl, 25 mM HEPES (pH 7.5), 2 mM dithiothreitol (DTT) was utilized to isolate homogeneous At279 and A287. Peak fractions were collected and dialyzed against crystallization storage buffer (100 mM NaCl, 25 mM HEPES (pH 7.5), 2 mM DTT). The resulting samples were subjected to SDS-PAGE and judged to be >95% pure based upon Coomassie staining. At279 and At287 were subsequently concentrated to 10-15 mg/ml and stored at −80° C.
(§2) At279 and At287 proteins were purified to homogeneity as described above. Ice-cold HPLC grade ethanol (600 μl) was added to the proteins (150 μl protein sample at 10 mg/ml previously dialyzed against 20 mM ammonium bicarbonate). The samples were vortexed and incubated at −20° C. for 3 days. For LC-MS analysis, the samples were centrifuged, and the supernatant containing the FAs was removed and placed in a new glass vial. The solvent was evaporated at 25° C., and the remaining residue resuspended in 200 μl propanol. The extracts were analyzed by liquid chromatography (LC) using an Agilent 1100 HPLC employing a Gemini reversed-phase C18 column (4.6×150 mm, 5 μ) running at a flow rate of 1 ml/min, and coupled to an electrospray ionization (ESI) XCT ion trap mass spectrometer (Agilent) operated in the negative-ion mode employing a continual introduction of a 20 mM ammonium acetate solution flowing at 100 μl/min. A linear gradient of acetonitrile (30-100% v/v) in 25 mM ammonium bicarbonate, pH 8, was used. The negative ion-ESI mass spectra of FA standards were as follows: Laurie acid (C12:0) (m/z)=198.7 ([M-H]-), Myristic acid (C14:0) (m/z)=226.9 ([M-H]-), Palmitic acid (C16:0)/m/z)=254.9 ([M-H]-) and Stearic acid (C18:0) (m/z)=282.9 ([M-H]-).

At279 (At3g63170) [1] = target: T2, At279 (At3g63170) (Arabidopsis thaliana, UniProt Q9M1X2); experiment: LC-MS analysis of fatty acids bound to purified At279 protein; conditions: protein over-expressed in and purified from E. coli, ethanol extract, negative-ion ESI
T2 construct: At279 and At287 proteins were purified to homogeneity as described above; His tag (pHIS8 vector) (N, cleaved yes); made in house; host or cells: E. coli BL21 (DE3)
T2 sequence (Q9M1X2 1-279): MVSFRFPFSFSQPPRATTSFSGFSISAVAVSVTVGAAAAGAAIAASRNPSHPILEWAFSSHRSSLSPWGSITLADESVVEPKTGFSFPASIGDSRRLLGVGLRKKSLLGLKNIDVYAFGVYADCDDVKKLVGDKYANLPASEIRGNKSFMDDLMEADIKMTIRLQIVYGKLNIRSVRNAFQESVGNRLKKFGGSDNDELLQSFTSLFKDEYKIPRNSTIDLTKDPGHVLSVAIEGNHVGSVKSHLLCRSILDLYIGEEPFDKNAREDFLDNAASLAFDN
Experimental: as §1, §2

At279 (At3g63170) [2] = target: T3, At279 (At3g63170) (Arabidopsis thaliana, UniProt Q9M1X2); experiment: X-ray crystal structure of At279 with bound small molecule; conditions: ligand likely derived from E. coli, carboxylic acid sequestered by Arg 103 and Tyr 116
T3 construct: Crystals of the heterologously expressed At279 C-terminal construct (residues 77 to 279) were obtained by vapor diffusion; His tag (pHIS8 vector) (N, cleaved yes); made in house; host or cells: E. coli BL21 (DE3)
T3 sequence (Q9M1X2 77-279): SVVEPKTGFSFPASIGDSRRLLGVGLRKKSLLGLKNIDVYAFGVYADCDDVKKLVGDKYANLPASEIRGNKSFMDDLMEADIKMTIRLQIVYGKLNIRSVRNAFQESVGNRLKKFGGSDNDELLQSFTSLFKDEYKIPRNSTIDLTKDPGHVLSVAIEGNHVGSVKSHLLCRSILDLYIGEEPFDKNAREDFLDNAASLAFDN
Experimental: Crystals of the heterologously expressed At279 C-terminal construct (residues 77 to 279) were obtained by vapor diffusion in 2 μl hanging drops incubated at 4° C. and consisting of a 1:1 mixture of protein and crystallization buffer. The crystallization buffer contained 19% (w/v) PEG 3350, 0.3 M KCl, 2 mM DTT and 100 mM TAPS buffer at pH 8.5. Prior to freezing in liquid nitrogen, native crystals were passed through a cryogenic buffer identical to the crystallization buffer except for the use of 21% (w/v) PEG 3350 and the inclusion of 20% (v/v) ethylene glycol. For heavy atom derivatization, native At279 crystals were soaked overnight in crystallization buffer differing from the crystallization solution due to an increased PEG 3350 concentration (21% (w/v)) and the inclusion of 1 mM K2PtCl4 prior to cryogenic freezing as before. A multi-wavelength anomalous dispersion (MAD) data set was collected at the Pt edge on a K2PtCl4 derivative crystal at the Stanford Synchrotron Radiation Laboratory (SSRL) on beam line BL1-5. Data were processed with HKL2000 and reduced to a unique set of indexed intensities to a resolution of 2.6 Å. A single-wavelength native data set was collected at SSRL and processed with HXL2000 to a resolution of 1.9 Å. At279 crystals belong to the P2(1)2(1)2(1) space group, with average unit cell dimensions of a=56.44 Å, b=56.96 Å, c=140.37 Å, α=β=γ=90°. […]

Row | SMILES | fatty acid bound to purified At287 (presence in protein extract by LC-MS) (At287 (At1g53520)) | fatty acid bound to purified At287 (presence in protein extract by LC-MS) (At287 (At1g53520); listed as C12:0) | fatty acid bound to purified At279 (presence in protein extract by LC-MS) (At279 (At3g63170) [1]) | fatty acid bound to purified At279 (presence in protein extract by LC-MS) (At279 (At3g63170) [1]; listed as C12:0) | small molecule bound in At279 crystal structure (At279 (At3g63170) [2]) | small molecule bound in At279 crystal structure (At279 (At3g63170) [2]; listed as lauric acid) | fatty acid bound to purified At287 (presence in protein extract by LC-MS) (At287 (At1g53520); listed as C14:0) | fatty acid bound to purified At279 (presence in protein extract by LC-MS) (At279 (At3g63170) [1]; listed as C14:0) | fatty acid bound to purified At287 (presence in protein extract by LC-MS) (At287 (At1g53520); listed as C16:0) | fatty acid bound to purified At279 (presence in protein extract by LC-MS) (At279 (At3g63170) [1]; listed as C16:0) | fatty acid bound to purified At287 (presence in protein extract by LC-MS) (At287 (At1g53520); listed as C18:0) | fatty acid bound to purified At279 (presence in protein extract by LC-MS) (At279 (At3g63170) [1]; listed as C18:0)
1 | CCCCCCCCCCCC(=O)O [Laurie acid, lauric acid] | bind | clearly showed the presence | bind | clearly showed the presence | sequestered in a well-organized binding pocket | bound in a cavity partially overlapping with the originally identified CHI active site | – | – | – | – | – | –
2 | CCCCCCCCCCCCCC(=O)O [Myristic acid] | bind | – | bind | – | – | – | clearly showed the presence | clearly showed the presence | – | – | – | –
3 | CCCCCCCCCCCCCCCC(=O)O [Palmitic acid] | bind | – | bind | – | – | – | – | – | clearly showed the presence | clearly showed the presence | – | –
4 | CCCCCCCCCCCCCCCCCC(=O)O [Stearic acid] | bind | – | bind | – | – | – | – | – | – | – | clearly showed the presence | clearly showed the presence
